Patent US6743816B2, “Imidazole derivatives with anti-inflammatory activity” (J. Uriach & Cia S.A., priority 2000, dated 2004)
Counter-ions that a name gives are not always drawn.

Columns and labels:
[1] = molecular target: T1, human COX-1 (U-937 from human histiocitic lymphoma) (Homo sapiens, UniProt P23219); assay: Inhibition of COX-1 activity in human cell line (PGE2 production after arachidonic acid); format: cell-based; details: 0.1 μM test compound; U-937 cells; PGE2 after 10 μM arachidonic acid
T1 construct: cell lines expressing human COX-1 (U-937 from human histiocitic lymphoma); endogenous in cells; host or cells: U-937 (human histiocytic lymphoma)
T1 sequence (P23219 24-599): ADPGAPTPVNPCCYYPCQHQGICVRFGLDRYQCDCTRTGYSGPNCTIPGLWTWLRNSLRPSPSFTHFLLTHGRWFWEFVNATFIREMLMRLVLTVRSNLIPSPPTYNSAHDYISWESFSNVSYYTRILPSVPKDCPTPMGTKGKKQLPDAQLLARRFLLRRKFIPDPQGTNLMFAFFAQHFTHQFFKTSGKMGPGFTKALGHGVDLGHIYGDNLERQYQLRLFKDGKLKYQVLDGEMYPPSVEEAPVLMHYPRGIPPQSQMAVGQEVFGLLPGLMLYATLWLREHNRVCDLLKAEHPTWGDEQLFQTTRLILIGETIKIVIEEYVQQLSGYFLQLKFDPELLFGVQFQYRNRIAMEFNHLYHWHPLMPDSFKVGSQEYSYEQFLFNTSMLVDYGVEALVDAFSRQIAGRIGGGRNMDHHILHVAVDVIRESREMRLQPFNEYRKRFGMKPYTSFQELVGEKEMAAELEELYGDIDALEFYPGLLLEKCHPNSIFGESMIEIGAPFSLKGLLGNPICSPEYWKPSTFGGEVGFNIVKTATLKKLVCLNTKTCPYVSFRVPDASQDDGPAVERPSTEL
Protocol: (§1) Inhibition of Cyclooxygenase-1 (COX-1) and Cyclooxygenase-2 (COX-2) Activity in Human Cell Lines
The inhibition of COX-1 and COX-2 is determined by assessing the PGE2 production after stimulation with arachidonic acid in cell lines expressing human COX-1 (U-937 from human histiocitic lymphoma) and human COX-2 (143.98.2 from human osteosarcoma), respectively.
(§2) The osteosarcoma-derived cells were cultured in 1 mL of DMEM culture medium supplemented with 10% fetal calf serum, in 24-well multidishes until confluence. U-937 cells were cultured in RPMI medium supplemented with 10% fetal calf serum in flasks.
(§3) To evaluate COX-2 activity, the medium was removed and replaced with Hepes-buffered saline solution (HBSS) without Ca^2+/Mg^2+ (2×10^5 cells/well). To evaluate COX-1 activity, the medium was removed and U-937 cells were resuspended to a final density of 3×10^6 cells/mL in HBSS without Ca^2+/Mg^2+ (1 mL/well, in 24-well multidishes). 1 μL of a solution of the test compound dissolved in DMSO or vehicle was added, and the samples were incubated for 15 min at 37° C. (5% CO2 and 95% humidity). Arachidonic acid was added (final concentration: 10 μM) and the samples were incubated for 10 min more. Next the reactions were quenched by adding indomethacin (8 mM, 30 μL). The amount of PGE2 in the supernatant was determined by specific enzymatic immunoassay (Kit Prostaglandin E2, Biotrak EIA system RPN222, Amersham Pharmacia Biotech). All the assays were performed in triplicate.

[2] = molecular target: T2, human COX-2 (143.98.2 from human osteosarcoma) (Homo sapiens, UniProt P35354); assay: Inhibition of COX-2 activity in human cell line (PGE2 production after arachidonic acid); format: cell-based; details: 0.1 μM test compound; 143.98.2 osteosarcoma cells; PGE2 after 10 μM arachidonic acid
T2 construct: human COX-2 (143.98.2 from human osteosarcoma); endogenous in cells; host or cells: 143.98.2 (human osteosarcoma)
T2 sequence (P35354 18-604): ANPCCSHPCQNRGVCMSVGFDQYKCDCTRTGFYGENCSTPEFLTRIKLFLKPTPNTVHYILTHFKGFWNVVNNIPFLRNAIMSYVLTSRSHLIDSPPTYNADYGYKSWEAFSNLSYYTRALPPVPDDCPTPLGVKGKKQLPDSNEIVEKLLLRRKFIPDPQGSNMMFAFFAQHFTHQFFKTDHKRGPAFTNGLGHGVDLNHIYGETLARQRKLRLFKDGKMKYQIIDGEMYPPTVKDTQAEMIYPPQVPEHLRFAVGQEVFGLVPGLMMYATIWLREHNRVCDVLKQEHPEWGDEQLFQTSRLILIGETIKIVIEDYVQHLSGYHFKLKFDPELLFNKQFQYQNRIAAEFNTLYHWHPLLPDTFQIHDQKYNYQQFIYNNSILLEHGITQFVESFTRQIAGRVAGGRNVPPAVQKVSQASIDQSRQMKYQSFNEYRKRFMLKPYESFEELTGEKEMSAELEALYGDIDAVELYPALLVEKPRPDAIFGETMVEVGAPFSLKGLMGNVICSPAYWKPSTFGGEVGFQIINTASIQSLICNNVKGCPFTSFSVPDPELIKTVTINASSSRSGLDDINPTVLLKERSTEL
Protocol: as §1, §2
as §3, with “(5% CO2 and 95% humidity).” left out

| Compound | inhibition at 0.1 µM [1] [%] | inhibition at 0.1 µM [2] [%] | % Inhibition (0.1 μM) COX-1 [1] [%] | % Inhibition (0.1 μM) COX-2 [2] [%] |
| --- | --- | --- | --- | --- |
| COc1c(Cl)cc(-c2c(Cl)ncn2-c2ccc(S(C)(=O)=O)cc2)cc1Cl [Example 8, 4-Chloro-5-(3,5-dichloro-4-methoxyphenyl)-1-(4-methylsulfonylphenyl)imidazole] | 0 | 92 | – | – |
| CC(C)Oc1ccc(-c2c(Cl)ncn2-c2ccc(S(C)(=O)=O)cc2)cc1 [Example 1, 4-Chloro-5-(4-isopropoxyphenyl)-1-(4-methylsulfonylphenyl)imidazole] | 0 | 52 | – | – |
| CCOc1ccc(-c2c(Cl)ncn2-c2ccc(S(C)(=O)=O)cc2)cc1Cl [Example 6, 4-Chloro-5-(3-chloro-4-ethoxyphenyl)-1-(4-methylsulfonylphenyl)imidazole] | 0 | 87 | – | – |
| CS(=O)(=O)c1ccc(-n2cnc(Cl)c2-c2ccc3c(c2)OCO3)cc1 [Example 7, 4-Chloro-5-[3,4-(methylenedioxy)phenyl]-1-(4-methylsulfonylphenyl)imidazole] | – | – | 1 | – |
| CCN(CC)c1ccc(-c2c(Cl)ncn2-c2ccc(S(C)(=O)=O)cc2)cc1 [Example 10, 4-Chloro-5-(4-N,N-diethylaminophenyl)-1-(4-methylsulfonylphenyl)imidazole] | – | – | 0 | 64 |
| COc1cc(-c2c(Cl)ncn2-c2ccc(S(C)(=O)=O)cc2)ccc1F [Example 2, 4-Chloro-5-(4-fluoro-3-methoxyphenyl)-1-(4-methylsulfonylphenyl)imidazole] | 0 | 82 | – | – |
| COc1ccc(-c2c(Cl)ncn2-c2ccc(S(C)(=O)=O)cc2)cc1Cl [Example 5, 4-Chloro-5-(3-chloro-4-methoxyphenyl)-1-(4-methylsulfonylphenyl)imidazole] | 17 | 92 | – | – |
| CS(=O)(=O)c1ccc(-n2cnc(Cl)c2-c2cc(F)cc(F)c2)cc1 [Example 4, 4-Chloro-5-(3,5-difluorophenyl)-1-(4-methylsulfonylphenyl)imidazole] | 2 | 57 | – | – |
| CCOc1ccc(-c2c(Cl)ncn2-c2ccc(S(C)(=O)=O)cc2)cc1F [Example 3, 4-Chloro-5-(4-ethoxy-3-fluorophenyl)-1-(4-methylsulfonylphenyl)imidazole] | 15 | 76 | – | – |

Continued, in another order:

| inhibition at 0.1 µM [1] [%] | inhibition at 0.1 µM [2] [%] | Compound | % Inhibition (0.1 μM) COX-1 [1] [%] | % Inhibition (0.1 μM) COX-2 [2] [%] |
| --- | --- | --- | --- | --- |
| 0 | 48 | CCCc1ccc(-c2c(Cl)ncn2-c2ccc(S(C)(=O)=O)cc2)cc1 [Example 16, 4-Chloro-1-(4-methylsulfonylphenyl)-5-(4-propylphenyl)imidazole] | – | – |
| 8 | 87 | COc1ccc(-c2c(Cl)ncn2-c2ccc(S(N)(=O)=O)cc2)cc1Cl [Example 14, 4-[4-Chloro-5-(3-chloro-4-methoxyphenyl)imidazol-1-yl]benzenesulfonamide] | – | – |
| 0 | 82 | CC(C)c1ccc(-c2c(Cl)ncn2-c2ccc(S(C)(=O)=O)cc2)cc1 [Example 9, 4-Chloro-5-(4-isopropylphenyl)-1-(4-methylsulfonylphenyl)imidazole] | – | – |
| 0 | 65 | CCOc1ccc(-c2c(Cl)ncn2-c2ccc(S(N)(=O)=O)cc2)cc1F [Example 12, 4-[4-Chloro-5-(4-ethoxy-3-fluorophenyl)imidazol-1-yl]benzenesulfonamide] | – | – |
| 0 | 97 | CCOc1ccc(-c2c(Cl)ncn2-c2ccc(S(N)(=O)=O)cc2)cc1Cl [Example 13, 4-[4-Chloro-5-(3-chloro-4-ethoxyphenyl)imidazol-1-yl]benzenesulfonamide] | – | – |
| 0 | 88 | COc1cc(-c2c(Cl)ncn2-c2ccc(S(N)(=O)=O)cc2)ccc1F [Example 11, 4-[4-Chloro-5-(4-fluoro-3-methoxyphenyl)imidazol-1-yl]benzenesulfonamide] | – | – |
| 0 | 90 | COc1c(Cl)cc(-c2c(Cl)ncn2-c2ccc(S(N)(=O)=O)cc2)cc1Cl [Example 15, 4-[4-Chloro-5-(3,5-dichloro-4-methoxyphenyl)imidazol-1-yl]benzenesulfonamide Hydrochloride] | – | – |
